Experimental data published in patent US12252524B2, “GIP/GLP1 co-agonist compounds” (Eli Lilly and Company, priority 2018, dated 2025).
Numbered stars: 1 amine (or outer) side, 2 acyl side, 3 side chain; on linkers, the order of the positions; unused ones are H or OH. Square brackets hold non-standard residues; d marks the D form. Side chains are listed from the residue outwards. Peptide text beside a SMILES is read from it. * marks the point of attachment. C20 diacid = O=C(O)CCCCCCCCCCCCCCCCCCC(=O)*; γGlu = O=C(O)[C@H](CCC(=O)[*:2])N[*:1]; AEEA = NCCOCCOCC(=O)O; Aib = CC(C)(N)C(=O)O

Tests used:
human Gcg receptor = target: T1, human Gcg receptor (Homo sapiens, UniProt P47871); assay: [125I]-Glucagon binding (SPA), human Gcg receptor; details: read-out: hGLcgR Ki, nM (SEM, n)
T1 construct: expressed in transfected cells; crude membranes
T1 sequence (P47871 26-477): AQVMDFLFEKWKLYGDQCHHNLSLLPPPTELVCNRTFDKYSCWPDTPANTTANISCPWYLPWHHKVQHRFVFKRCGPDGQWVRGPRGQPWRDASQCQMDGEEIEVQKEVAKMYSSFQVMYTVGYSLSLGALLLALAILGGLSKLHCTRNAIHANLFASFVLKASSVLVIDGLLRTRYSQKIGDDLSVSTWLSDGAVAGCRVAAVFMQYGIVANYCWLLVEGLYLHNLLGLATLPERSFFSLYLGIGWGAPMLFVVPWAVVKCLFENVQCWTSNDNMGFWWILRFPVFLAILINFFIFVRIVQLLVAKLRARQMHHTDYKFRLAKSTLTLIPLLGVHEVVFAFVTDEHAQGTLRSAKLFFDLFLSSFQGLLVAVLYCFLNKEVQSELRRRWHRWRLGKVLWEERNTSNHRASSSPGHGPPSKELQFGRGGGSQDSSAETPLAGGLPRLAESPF
Outline: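 Crude membranes from cells expressing the receptor, prepared by hypotonic lysis in 50 mM Tris HCl pH 7.5 with protease inhibitors, homogenization and differential centrifugation, were used in a WGA-bead SPA. Binding buffer: 25 mM HEPES pH 7.4, 2.5 mM CaCl2, 1 mM MgCl2, bacitracin, Tween-20.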

human GIP receptor = target: T2, human GIP receptor (Homo sapiens, UniProt P48546); assay: [125I]-GIP binding (SPA), human GIP receptor; details: read-out: hGIPR Ki, nM (SEM, n)
T2 construct: expressed in transfected cells; crude membranes
T2 sequence (P48546 22-466): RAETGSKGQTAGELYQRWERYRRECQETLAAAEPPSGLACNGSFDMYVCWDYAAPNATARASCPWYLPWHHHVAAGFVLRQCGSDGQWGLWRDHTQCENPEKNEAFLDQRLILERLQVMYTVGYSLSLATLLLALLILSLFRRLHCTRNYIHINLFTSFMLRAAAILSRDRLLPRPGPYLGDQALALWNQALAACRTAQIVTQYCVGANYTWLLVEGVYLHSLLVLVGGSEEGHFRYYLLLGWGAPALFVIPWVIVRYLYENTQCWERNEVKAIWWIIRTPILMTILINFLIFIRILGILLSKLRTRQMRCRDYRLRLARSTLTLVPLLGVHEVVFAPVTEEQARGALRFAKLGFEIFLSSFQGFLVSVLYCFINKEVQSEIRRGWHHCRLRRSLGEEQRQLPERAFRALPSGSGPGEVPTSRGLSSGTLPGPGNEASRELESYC

[1] = target: human GLP-1 receptor (GLP-1R) (Homo sapiens, UniProt P43220); assay: cAMP pharmacological functional assay in presence of casein, hGLP-1R; assay type: cell-based; details: HEK293 cells expressing hGLP-1R, 0.1% Casein, geometric mean; read-out: hGLP1R cAMP Rel EC50 nM (SEM, n)
human GLP-1 receptor (GLP-1R), sequence (P43220 24-463): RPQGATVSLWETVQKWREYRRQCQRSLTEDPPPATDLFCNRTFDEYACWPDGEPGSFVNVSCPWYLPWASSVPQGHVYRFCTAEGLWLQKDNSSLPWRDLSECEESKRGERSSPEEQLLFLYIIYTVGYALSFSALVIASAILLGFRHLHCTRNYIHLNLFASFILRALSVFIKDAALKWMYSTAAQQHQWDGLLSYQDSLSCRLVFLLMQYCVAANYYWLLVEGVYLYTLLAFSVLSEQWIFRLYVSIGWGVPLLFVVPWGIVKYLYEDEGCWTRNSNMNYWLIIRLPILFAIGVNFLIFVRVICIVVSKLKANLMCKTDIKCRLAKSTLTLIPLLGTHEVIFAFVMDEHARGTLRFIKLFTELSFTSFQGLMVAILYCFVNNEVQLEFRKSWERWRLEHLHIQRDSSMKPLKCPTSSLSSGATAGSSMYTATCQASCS

[2] = target: T3, gastric inhibitory peptide receptor (GIPR) (Homo sapiens, UniProt P48546); assay: cAMP pharmacological functional assay in presence of casein, hGIPR; assay type: cell-based; details: HEK293 cells expressing hGIPR, 0.1% Casein, geometric mean; read-out: hGIPR cAMP Rel EC50 nM (SEM, n)
T3 sequence (P48546 22-466): T2 sequence (P48546 22-466)

human GLP-1R = human GLP-1R (Homo sapiens, UniProt P43220); assay: [125I]-GLP-1 binding (SPA), human GLP-1 receptor; parameters: expressed in transfected cells; crude membranes; details: read-out: hGLP1R Ki, (nM) (SEM, n)
human GLP-1R, sequence (P43220 24-463): as above
Outline: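 Ki values are geometric means with SEM over independent replicates on different days, derived from IC50s fitted by four-parameter nonlinear regression. The assay used crude cell membranes in HEPES buffer, pH 7.4, containing CaCl2, MgCl2, bacitracin and TWEEN-20.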

Row | Compound | Ki (human Gcg receptor) [nM] | Ki (human GIP receptor) [nM] | EC50 [1] [nM] | EC50 [2] [nM] | Ki (human GLP-1R) [nM]
1 | CC[C@H](C)[C@H](NC(=O)[C@H](CCCCN)NC(=O)[C@H](CC(=O)O)NC(=O)[C@H](CC(C)C)NC(=O)[C@H](CC(C)C)NC(=O)[C@@H](NC(=O)[C@H](CO)NC(=O)[C@H](Cc1ccc(O)cc1)NC(=O)[C@H](CC(=O)O)NC(=O)[C@H](CO)NC(=O)[C@@H](NC(=O)[C@H](Cc1ccccc1)NC(=O)[C@@H](NC(=O)CNC(=O)[C@H](CCC(=O)O)NC(=O)C(C)(C)NC(=O)[C@@H](N)Cc1ccc(O)cc1)[C@@H](C)O)[C@@H](C)O)[C@@H](C)CC)C(=O)N[C@@H](C)C(=O)N[C@@H](CCC(N)=O)C(=O)NC(C)(C)C(=O)N[C@@H](C)C(=O)N[C@@H](Cc1ccccc1)C(=O)N[C@H](C(=O)N[C@@H](CCC(=O)O)C(=O)N[C@@H](Cc1ccc(O)cc1)C(=O)N[C@@H](CC(C)C)C(=O)N[C@H](C(=O)N[C@@H](CCC(=O)O)C(=O)NCC(=O)NCC(=O)N1CCC[C@H]1C(=O)N[C@@H](CO)C(=O)N[C@@H](CO)C(=O)NCC(=O)N[C@@H](CCCCNC(=O)COCCOCCNC(=O)COCCOCCNC(=O)CC[C@H](NC(=O)CCCCCCCCCCCCCCCCCCC(=O)O)C(=O)O)C(=O)N1CCC[C@H]1C(=O)N1CCC[C@H]1C(=O)N1CCC[C@H]1C(=O)N[C@@H](CO)C(N)=O)[C@@H](C)CC)[C@@H](C)CC [Example 44] (H-Y[Aib]EGTFTSDYSILLDKIAQ[Aib]AFIEYLIEGGPSSGK([AEEA-AEEA-γGlu-C20 diacid])PPPS-NH2) | 121 | 0.0516 | 0.752 | 0.128 | 10.6
2 | CC[C@H](C)[C@H](NC(=O)[C@H](CCCCN)NC(=O)[C@H](CC(=O)O)NC(=O)[C@H](CC(C)C)NC(=O)[C@H](CC(C)C)NC(=O)[C@@H](NC(=O)[C@H](CO)NC(=O)[C@H](Cc1ccc(O)cc1)NC(=O)[C@H](CC(=O)O)NC(=O)[C@H](CO)NC(=O)[C@@H](NC(=O)[C@H](Cc1ccccc1)NC(=O)[C@@H](NC(=O)CNC(=O)[C@H](CCC(=O)O)NC(=O)C(C)(C)NC(=O)[C@@H](N)Cc1ccc(O)cc1)[C@@H](C)O)[C@@H](C)O)[C@@H](C)CC)C(=O)N[C@@H](C)C(=O)N[C@@H](CCC(N)=O)C(=O)NC(C)(C)C(=O)N[C@@H](C)C(=O)N[C@@H](Cc1ccccc1)C(=O)N[C@H](C(=O)N[C@@H](CCC(=O)O)C(=O)N[C@@H](Cc1ccc(O)cc1)C(=O)N[C@@H](CC(C)C)C(=O)N[C@H](C(=O)N[C@@H](CCC(=O)O)C(=O)NCC(=O)NCC(=O)N1CCC[C@H]1C(=O)N[C@@H](CO)C(=O)N[C@@H](CO)C(=O)NCC(=O)N[C@@H](C)C(=O)N[C@@H](CCCCNC(=O)COCCOCCNC(=O)COCCOCCNC(=O)CC[C@H](NC(=O)CCCCCCCCCCCCCCCCCCC(=O)O)C(=O)O)C(=O)N1CCC[C@H]1C(=O)N1CCC[C@H]1C(=O)N[C@@H](CO)C(N)=O)[C@@H](C)CC)[C@@H](C)CC [Example 45] (H-Y[Aib]EGTFTSDYSILLDKIAQ[Aib]AFIEYLIEGGPSSGAK([AEEA-AEEA-γGlu-C20 diacid])PPS-NH2) | 11.1 | 0.0463 | 1.03 | 0.106 | 5.65
3 | CC[C@H](C)[C@H](NC(=O)[C@H](CCCCN)NC(=O)[C@H](CC(=O)O)NC(=O)[C@H](CC(C)C)NC(=O)[C@H](CC(C)C)NC(=O)[C@@H](NC(=O)[C@H](CO)NC(=O)[C@H](Cc1ccc(O)cc1)NC(=O)[C@H](CC(=O)O)NC(=O)[C@H](CO)NC(=O)[C@@H](NC(=O)[C@H](Cc1ccccc1)NC(=O)[C@@H](NC(=O)CNC(=O)[C@H](CCC(=O)O)NC(=O)C(C)(C)NC(=O)[C@@H](N)Cc1ccc(O)cc1)[C@@H](C)O)[C@@H](C)O)[C@@H](C)CC)C(=O)N[C@@H](C)C(=O)N[C@@H](CCC(N)=O)C(=O)NC(C)(C)C(=O)N[C@@H](C)C(=O)N[C@@H](Cc1ccccc1)C(=O)N[C@H](C(=O)N[C@@H](CCC(=O)O)C(=O)N[C@@H](Cc1ccc(O)cc1)C(=O)N[C@@H](CC(C)C)C(=O)N[C@H](C(=O)N[C@@H](CCC(=O)O)C(=O)NCC(=O)NCC(=O)N1CCC[C@H]1C(=O)N[C@@H](CO)C(=O)N[C@@H](CO)C(=O)NCC(=O)N[C@@H](C)C(=O)N1CCC[C@H]1C(=O)N[C@@H](CCCCNC(=O)COCCOCCNC(=O)COCCOCCNC(=O)CC[C@H](NC(=O)CCCCCCCCCCCCCCCCCCC(=O)O)C(=O)O)C(=O)N1CCC[C@H]1C(=O)N[C@@H](CO)C(N)=O)[C@@H](C)CC)[C@@H](C)CC [Example 46] (H-Y[Aib]EGTFTSDYSILLDKIAQ[Aib]AFIEYLIEGGPSSGAPK([AEEA-AEEA-γGlu-C20 diacid])PS-NH2) | 133 | 0.0852 | 0.687 | 0.172 | 13.4

The remaining compounds from weak to strong by Ki (human Gcg receptor), led by results:

Row | Ki (human Gcg receptor) [nM] | Ki (human GIP receptor) [nM] | EC50 [1] [nM] | EC50 [2] [nM] | Ki (human GLP-1R) [nM] | Compound
4 | 160 | 0.0514 | 1.45 | 0.161 | 13.2 | CC[C@H](C)[C@H](NC(=O)[C@H](CCCCN)NC(=O)[C@H](CC(=O)O)NC(=O)[C@H](CC(C)C)NC(=O)[C@H](CC(C)C)NC(=O)[C@@H](NC(=O)[C@H](CO)NC(=O)[C@H](Cc1ccc(O)cc1)NC(=O)[C@H](CC(=O)O)NC(=O)[C@H](CO)NC(=O)[C@@H](NC(=O)[C@H](Cc1ccccc1)NC(=O)[C@@H](NC(=O)CNC(=O)[C@H](CCC(=O)O)NC(=O)C(C)(C)NC(=O)[C@@H](N)Cc1ccc(O)cc1)[C@@H](C)O)[C@@H](C)O)[C@@H](C)CC)C(=O)N[C@@H](C)C(=O)N[C@@H](CCC(N)=O)C(=O)NC(C)(C)C(=O)N[C@@H](C)C(=O)N[C@@H](Cc1ccccc1)C(=O)N[C@H](C(=O)N[C@@H](CCC(=O)O)C(=O)N[C@@H](Cc1ccc(O)cc1)C(=O)N[C@@H](CC(C)C)C(=O)N[C@H](C(=O)N[C@@H](CCC(=O)O)C(=O)NCC(=O)NCC(=O)N1CCC[C@H]1C(=O)N[C@@H](CO)C(=O)N[C@@H](CCCCNC(=O)COCCOCCNC(=O)COCCOCCNC(=O)CC[C@H](NC(=O)CCCCCCCCCCCCCCCCCCC(=O)O)C(=O)O)C(=O)NCC(=O)N[C@@H](C)C(=O)N1CCC[C@H]1C(=O)N1CCC[C@H]1C(=O)N1CCC[C@H]1C(=O)N[C@@H](CO)C(N)=O)[C@@H](C)CC)[C@@H](C)CC [Example 42] (H-Y[Aib]EGTFTSDYSILLDKIAQ[Aib]AFIEYLIEGGPSK([AEEA-AEEA-γGlu-C20 diacid])GAPPPS-NH2)
5 | 134 | 0.101 | 0.862 | 0.112 | 11.8 | CC[C@H](C)[C@H](NC(=O)[C@H](CCCCN)NC(=O)[C@H](CC(=O)O)NC(=O)[C@H](CC(C)C)NC(=O)[C@H](CC(C)C)NC(=O)[C@@H](NC(=O)[C@H](CO)NC(=O)[C@H](Cc1ccc(O)cc1)NC(=O)[C@H](CC(=O)O)NC(=O)[C@H](CO)NC(=O)[C@@H](NC(=O)[C@H](Cc1ccccc1)NC(=O)[C@@H](NC(=O)CNC(=O)[C@H](CCC(=O)O)NC(=O)C(C)(C)NC(=O)[C@@H](N)Cc1ccc(O)cc1)[C@@H](C)O)[C@@H](C)O)[C@@H](C)CC)C(=O)N[C@@H](C)C(=O)N[C@@H](CCC(N)=O)C(=O)NC(C)(C)C(=O)N[C@@H](C)C(=O)N[C@@H](Cc1ccccc1)C(=O)N[C@H](C(=O)N[C@@H](CCC(=O)O)C(=O)N[C@@H](Cc1ccc(O)cc1)C(=O)N[C@@H](CC(C)C)C(=O)N[C@H](C(=O)N[C@@H](CCC(=O)O)C(=O)NCC(=O)NCC(=O)N1CCC[C@H]1C(=O)N[C@@H](CO)C(=O)N[C@@H](CO)C(=O)N[C@@H](CCCCNC(=O)COCCOCCNC(=O)COCCOCCNC(=O)CC[C@H](NC(=O)CCCCCCCCCCCCCCCCCCC(=O)O)C(=O)O)C(=O)N[C@@H](C)C(=O)N1CCC[C@H]1C(=O)N1CCC[C@H]1C(=O)N1CCC[C@H]1C(=O)N[C@@H](CO)C(N)=O)[C@@H](C)CC)[C@@H](C)CC [Example 43] (H-Y[Aib]EGTFTSDYSILLDKIAQ[Aib]AFIEYLIEGGPSSK([AEEA-AEEA-γGlu-C20 diacid])APPPS-NH2; N-terminus assumed)
